Reference: patent publication US20180000085A1, “USE OF PICOLINAMIDE COMPOUNDS WITH FUNGICIDAL ACTIVITY” (DOW AGROSCIENCES LLC, priority 2014, published 2018)

What was measured:
[1] = system: Zymoseptoria tritici; assay: Leaf blotch of wheat (SEPTTR) disease control on wheat seedlings; format: in vivo; design: key to SEPTTR 1DP, HV activity at 100 ppm (% control rating) / SEPTTR 3DC, HV activity at 100 ppm (% control rating) / SEPTTR disease control, 1DP / SEPTTR disease control, 3DC / SEPTTR 1DP disease control rating, HV activity / SEPTTR 3DC disease control rating, HV activity / SEPTTR 3DC, LV activity at 125.1 g/H (% Control rating) / SEPTTR 1DP, LV activity at 125.1 g/H (% Control rating) / SEPTTR 1DP disease control rating, LV activity at 125.1 g/H / SEPTTR 3DC disease control rating, LV activity at 125.1 g/H / SEPTTR 3DC disease control rating, HV activity at 100 ppm / SEPTTR 1DP disease control rating, HV activity at 100 ppm / HV activity at 100 ppm SEPTTR 3DC (disease control rating) / HV activity at 100 ppm SEPTTR 1DP (disease control rating) / LV activity at 125.1 g/H SEPTTR 1DP (disease control rating) / LV activity at 125.1 g/H SEPTTR 3DC (disease control rating): A: > 80; B: ≤ 80; C: Not Tested; D: No Activity Observed in the Reported Assay; settings: low volume application, 125.1 g/H; for SEPTTR 1DP, LV activity at 125.1 g/H (% Control rating): 1 Day Protectant; for SEPTTR 3DC, LV activity at 125.1 g/H (% Control rating): 3 Day Curative
[2] = system: Puccinia triticina; assay: Wheat brown rust (PUCCRT) disease control on wheat seedlings; format: in vivo; design: key to PUCCRT 3DC, HV activity at 100 ppm (% control rating) / PUCCRT disease control, 3DC / PUCCRT 1DP disease control rating, HV activity / PUCCRT 3DC disease control rating, HV activity / PUCCRT 3DC, LV activity at 125.1 g/H (% Control rating) / PUCCRT 1DP, LV activity at 125.1 g/H (% Control rating) / PUCCRT 3DC disease control rating, LV activity at 125.1 g/H / PUCCRT 1DP disease control rating, LV activity at 125.1 g/H / PUCCRT 3DC disease control rating, HV activity at 100 ppm / PUCCRT 1DP disease control rating, HV activity at 100 ppm / HV activity at 100 ppm PUCCRT 3DC (disease control rating) / LV activity at 125.1 g/H PUCCRT 1DP (disease control rating) / LV activity at 125.1 g/H PUCCRT 3DC (disease control rating): A: > 80; B: ≤ 80; C: Not Tested; D: No Activity Observed in the Reported Assay; settings: low volume application, 125.1 g/H; for PUCCRT 1DP, LV activity at 125.1 g/H (% Control rating): 1 Day Protectant; for PUCCRT 3DC, LV activity at 125.1 g/H (% Control rating): 3 Day Curative

In the case of `COCC[C@@H](OCc1ccccc1)[C@H](C)OC(=O)[C@H](C)NC(=O)c1nccc(OC)c1OCOC(C)=O` [Cmpd 526], the “SEPTTR 1DP, LV activity at 125.1 g/H (% Control rating)” value (from here on “SEPTTR 1DP … (% Control rating)”) [1] was “B (≤ 80)”, the “SEPTTR 3DC, LV activity at 125.1 g/H (% Control rating)” value (from here on “SEPTTR 3DC … (% Control rating)”) [1] was “B (≤ 80)” and the “PUCCRT 1DP, LV activity at 125.1 g/H (% Control rating)” value (from here on “PUCCRT 1DP … (% Control rating)”) [2] was “D”. The “PUCCRT 3DC, LV activity at 125.1 g/H (% Control rating)” value (from here on “PUCCRT 3DC … (% Control rating)”) [2] was “B (≤ 80)”.

With `COc1ccnc(C(=O)NC(C)C(=O)OC(C)COCC2CC2)c1OCOC(C)=O` (stereo not shown) [Cmpd 527] the “SEPTTR 1DP … (% Control rating)” value [1] was “D”, the “SEPTTR 3DC … (% Control rating)” value [1] was “A (> 80)” and the “PUCCRT 1DP … (% Control rating)” value [2] was “B (≤ 80)”. The “PUCCRT 3DC … (% Control rating)” value [2] was “B (≤ 80)”.

In the case of `COc1ccnc(C(=O)NC(C)C(=O)OC(C)COCC2CC2)c1OCOC(=O)C(C)C` (stereo not shown) [Cmpd 528], the “SEPTTR 1DP … (% Control rating)” value [1] was “D”, the “SEPTTR 3DC … (% Control rating)” value [1] was “B (≤ 80)” and the “PUCCRT 1DP … (% Control rating)” value [2] was “D”. For the same compound, the “PUCCRT 3DC … (% Control rating)” value [2] was “D”.

With `COc1ccnc(C(=O)NC(C)C(=O)OC(C)COCC2CC2)c1OC(C)=O` (stereo not shown) [Cmpd 529] the “SEPTTR 1DP … (% Control rating)” value [1] was “B (≤ 80)”, the “SEPTTR 3DC … (% Control rating)” value [1] was “B (≤ 80)” and the “PUCCRT 1DP … (% Control rating)” value [2] was “D”. For the same compound, the “PUCCRT 3DC … (% Control rating)” value [2] was “D”.

`COc1ccnc(C(=O)NC(C)C(=O)OC(C)COC(=O)C(C)C)c1OCOC(C)=O` (stereo not shown) [Cmpd 530] was tested, and the “SEPTTR 1DP … (% Control rating)” value [1] was “B (≤ 80)”, the “SEPTTR 3DC … (% Control rating)” value [1] was “B (≤ 80)” and the “PUCCRT 1DP … (% Control rating)” value [2] was “D”. For the same compound, the “PUCCRT 3DC … (% Control rating)” value [2] was “D”.

In the case of `COc1ccnc(C(=O)NC(C)C(=O)OC(C)COC(=O)C(C)C)c1OCOC(=O)C(C)C` (stereo not shown) [Cmpd 531], the “SEPTTR 1DP … (% Control rating)” value [1] was “D”, the “SEPTTR 3DC … (% Control rating)” value [1] was “B (≤ 80)” and the “PUCCRT 1DP … (% Control rating)” value [2] was “D”. For the same compound, the “PUCCRT 3DC … (% Control rating)” value [2] was “D”.

For `COc1ccnc(C(=O)NC(C)C(=O)OC(C)COC(=O)C(C)C)c1OC(C)=O` (stereo not shown) [Cmpd 532], the “SEPTTR 1DP … (% Control rating)” value [1] was “B (≤ 80)”, the “SEPTTR 3DC … (% Control rating)” value [1] was “A (> 80)” and the “PUCCRT 1DP … (% Control rating)” value [2] was “D”. For the same compound, the “PUCCRT 3DC … (% Control rating)” value [2] was “D”.

`COc1ccnc(C(=O)NC(C)C(=O)OC(C)COCC(C)C)c1OCOC(C)=O` (stereo not shown) [Cmpd 533] was tested, and the “SEPTTR 1DP … (% Control rating)” value [1] was “D”, the “SEPTTR 3DC … (% Control rating)” value [1] was “A (> 80)” and the “PUCCRT 1DP … (% Control rating)” value [2] was “D”. The “PUCCRT 3DC … (% Control rating)” value [2] was “A (> 80)”.

With `COc1ccnc(C(=O)NC(C)C(=O)OC(C)COC2CCCC2)c1OCOC(C)=O` (stereo not shown) [Cmpd 534] the “SEPTTR 1DP … (% Control rating)” value [1] was “D”, the “SEPTTR 3DC … (% Control rating)” value [1] was “A (> 80)” and the “PUCCRT 1DP … (% Control rating)” value [2] was “D”. The “PUCCRT 3DC … (% Control rating)” value [2] was “A (> 80)”.

`COc1ccnc(C(=O)NC(C)C(=O)OC(C)COC(C)(C)C)c1OCOC(C)=O` (stereo not shown) [Cmpd 535] was tested, and the “SEPTTR 1DP … (% Control rating)” value [1] was “D”, the “SEPTTR 3DC … (% Control rating)” value [1] was “B (≤ 80)” and the “PUCCRT 1DP … (% Control rating)” value [2] was “D”. For the same compound, the “PUCCRT 3DC … (% Control rating)” value [2] was “B (≤ 80)”.

`COc1ccnc(C(=O)NC(C)C(=O)OC(C)COc2ccccc2)c1OC(=O)C1CC1` (stereo not shown) [Cmpd 541] was tested, and the “SEPTTR 1DP … (% Control rating)” value [1] was “B (≤ 80)”, the “SEPTTR 3DC … (% Control rating)” value [1] was “B (≤ 80)” and the “PUCCRT 1DP … (% Control rating)” value [2] was “D”. The “PUCCRT 3DC … (% Control rating)” value [2] was “D”.

For `COc1ccnc(C(=O)N[C@@H](C)C(=O)O[C@@H](C)[C@H](Oc2ccc(Cl)cc2Cl)C2CCCC2)c1OCOC(C)=O` [Cmpd 551], the “SEPTTR 1DP … (% Control rating)” value [1] was “A (> 80)”, the “SEPTTR 3DC … (% Control rating)” value [1] was “B (≤ 80)” and the “PUCCRT 1DP … (% Control rating)” value [2] was “A (> 80)”. For the same compound, the “PUCCRT 3DC … (% Control rating)” value [2] was “B (≤ 80)”.

With `CCC(CC)[C@@H](OCC1CC1)[C@H](C)OC(=O)[C@H](C)NC(=O)c1nccc(OC)c1OC(C)=O` [Cmpd 555] the “SEPTTR 1DP … (% Control rating)” value [1] was “B (≤ 80)”, the “SEPTTR 3DC … (% Control rating)” value [1] was “A (> 80)” and the “PUCCRT 1DP … (% Control rating)” value [2] was “A (> 80)”. For the same compound, the “PUCCRT 3DC … (% Control rating)” value [2] was “A (> 80)”.
